Tested on: Spontaneously hypertensive rats (SHR/Izm)
Assay: Systolic blood pressure in spontaneously hypertensive rats after single dose of synthesized peptides (2) to (6) (tail-cuff method)
Format: in vivo, rat
Settings: single dose 50 mg/kg body weight, *p < 0.05, **p < 0.01
From the text: The following peptides were synthesized according to known methods, based on the amino acid sequences of peptides isolated from the globin proteolysate prepared in Experimental Example 3 and identified. The peptide (WGKV; SEQ ID NO:3) (3) corresponds to a peptide produced by one amino acid deletion at the C terminus from the amino acid sequence of the peptide (WGKVN; SEQ ID NO:2) (2), and the peptide (WGK; SEQ ID NO:4) (4) corresponds to a peptide produced by deleting a further amino acid at the C terminus.
Spontaneously hypertensive rats (SHR/Izm, male, 12-week-old, body weight: 285 g, Japan SLC, Inc.) were administered in a single dose with the peptides synthesized above (peptides (2) to (6)) in an amount of 50 mg/kg body weight. Two, four, and six hours after the start of administration, the systolic blood pressures of the rats were measured using a non-heating non-invasive blood pressure monitor (“MK-2000”, manufactured by Muromachi Kikai Co., Ltd.) by the tail-cuff method without using anesthesia. Spontaneously hypertensive rats as a control group were orally administered with a solvent (distilled water), and the systolic blood pressures of the rats were measured in a similar manner.

Row | Substance | Reduction in blood pressure, 2 hours after administration | Reduction in blood pressure, 4 hours after administration | Reduction in blood pressure, 6 hours after administration
1 | Ala-Ala-Trp-Gly-Lys (AAWGK; Peptide found in globin hydrolysate) | −7 ± 4 mmHg | −8 ± 12 mmHg | −4 ± 8 mmHg
2 | Phe-Glu-Ser (FES; Peptide found in globin hydrolysate) | −15 ± 4* mmHg | −13 ± 8 mmHg | −15 ± 6 mmHg
3 | Trp-Gly-Lys (WGK; Peptide found in globin hydrolysate) | −3 ± 7 mmHg | −23 ± 8** mmHg | −15 ± 8 mmHg
4 | Trp-Gly-Lys-Val (WGKV; Peptide found in globin hydrolysate) | −9 ± 3 mmHg | −4 ± 4 mmHg | −3 ± 3 mmHg
5 | Trp-Gly-Lys-Val-Asn (WGKVN; Peptide found in globin hydrolysate) | −16 ± 4** mmHg | −12 ± 4* mmHg | −14 ± 3** mmHg
